Read-outs that look alike come from different tables or passages of the source.
Assays:
[1] = test system: NMDA-induced excitatory response of red nucleus cells; assay: Rat Red Nucleus Test; format: in vivo; details: iv
Description: The purpose of this test is to determine the effects of intravenously administered is glycine antagonists on the NMDA- induced excitatory response of red nucleus cells.
The procedure for the red nucleus test is as follows. Rats are anesthetized with chloral hydrate (400 mg/kg ip) and the femoral vein is catheterized for iv drug administration. Five-barrel micropipettes are stereotaxically positioned in the red nucleus. Typically, three to four of the five barrels are filled as follows: the recording barrel with 2M potassium citrate. the current balancing barrel with 4M NaCl, the drug barrel with 25 mM NMDA, and another drug barrel with 2.5 mM quisqualic acid (QA is only used in selectivity studies). NMDA is iontophoretically applied with an ejection current that is adjusted depending on the sensitivity of each individual red nucleus cell. The NMDA is cycled on and off (usually 30-60 sec. on and 60-120 sec. off) and the firing rate of the cell during each period is recorded. Once the baseline firing rate of the cell has been established, the test drug is administered iv. The inhibitory effect of the drug on the NMDA-induced excitatory response of the red nucleus cell can then be both qualitatively and quantitatively evaluated from the recordings and the raw data accumulated and the results are expressed as an ID50 value (The dose in mg/kg of the test drug which causes 50% inhibition).

[2] = target: T1, N-methyl-D-aspartate receptor (Rattus norvegicus, UniProt P35439); assay: [3H]-glycine Binding Assay; design: species or system Sprague-Dawley rat; details: 20 nM [3H]-glycine, rat cortex and hippocampus synaptic membranes, pH 7.1, 30 minutes at 4° C.
T1 construct: Freshly dissected cortices and hippocampi are homogenized in 0.32M sucrose; from tissue; host or cells: cortices and hippocampi of adult male Sprague-Dawley rats, synaptic membranes
Description: [^3 H]-glycine Binding Assay
In the [^3 H]-glycine binding assay, neuronal synaptic membranes are prepared from adult (about 250 g) male Sprague-Dawley rats. Freshly dissected cortices and hippocampi are homogenized in 0.32M sucrose (110 mg/mL). Synaptosomes are isolated by centrifugation (1000×g, 10 minutes), the supernatant is pelleted (20,000×g, 20 minutes) resuspended in double-distilled water. The suspension was centrifuged for 20 minutes at 8,000×g. The resulting supernatant and buffy coat are washed twice (48,000×g, 10 minutes, resuspension in double-deionizedwater). The final pellet is quickly frozen (dry icelethanol bath) under double-deionized water and stored at -70° C.
On the day of the experiment, thawed synaptic membranes are homogenized with a Brinkmann Polytron (TM, Brinkmann Instruments, Westbury, N.Y.) tissue homogenizer in 50 mM tris(hydroxymethyl)aminomethane citrate, pH 7.1. The membranes are incubated with 0.04% Sufact-AMPS X100 (TM, Pierce, Rockford, Ill.) in buffer for 20 minutes at 37° C. and washed six times by centrifugation (48,000×g, 10 minutes) and resuspended in buffer. The final pellet is homogenized at 200 mg wet weight/mL of the buffer for the binding assay.
For [^3 H]-glycine binding at the N-methyl-D-aspartate receptor, 20 nM [^3 H]-glycine (40-60 Ci/mmol, New England Nuclear, Boston, Mass.) is incubated with the membranes suspended in 50 mM tris(hydroxymethyl)aminomethane citrate, pH 7.1 for 30 minutes at 4° C. Glycine, 1mM, is used to define the nonspecific binding. Bound [^3 H]-glycine is isolated from free using a Brandel (Biomedical Research and Development Laboratories, Gaithersburg, Md.) cell harvester for vacuum filtration over glass fiber filters (Whatman GFB from Brandel, Gaithersburg, Md.) presoaked in 0.025% polyethylenimine. The samples retained on the glass fiber filters are rinsed 3 times with a total of 2.5 mL ice cold buffer. Radioactivity is estimated by liquid scintillation counting. IC50 values are obtained from a least-squares regression of a logit-log transformation of the data.

infarcted cortex = assay: Rat Middle Cerebral Artery Test; format: in vivo, SHR rat; details: intravenously, 10 mg/kg per hour over 4 hours; permanent MCA occlusion
Description: Rat Middle Cerebral Artery Test
Male SHR rats weight 280-320 g are used for these studies. The method used for permanent middle cerebral artery (MCA) occlusion is as described by Brint et al (1988). […] Following occlusions, drugs are administered intravenously via jugular catheter. Twenty-four hours after MCA/common carotid artery occlusion, the animals are sacrificed and their brains quickly removed. Coronal sections of 1 mm thickness are cut using a vibratome and stained with 2,3,5-triphenyl-2H-tetrazolium chloride (TTC) dye. Following staining, necrotic tissue is readily distinguished from the intact brain and the area of infarcted cortex can be traced on an image analyzer. The infarct volume for each section is quantified with an image analyzer, and the total infarct volume is calculated with a program that sums all interval volumes. See S. Brint et al. J. Cerebral Blood Flow 8:474-475 (1988). The statistical analysis of the difference between the volume of ischemic damage in the vehicle control and drug-treated animals is analyzed by Student's t-test. The results are expressed as the percent (%) change in infarct volume and are presented as the mean for animals.

[3] = test system: neuronal damage in the hippocampus; assay: Gerbil Ischemic Model; format: in vivo, Mongolian gerbil; details: ip twice (pre- and post-occlusion), 20 mg/kg body weight
Description: Adult female Mongolian gerbils (50-70 g) are anesthetized with 2 to 3% halothane. The bilateral common carotid arteries at the neck are exposed and occluded with microaneurysm clips. After 10 min (unless specified), the clips are removed and the blood flow through the carotid arteries is restored and the skin is sutured. Test compounds are administered intraperitoneally both pre- and post-occlusion, for example 45 minutes before and 5 minutes after occlusion of the carotid arteries. Sham-operated animals are treated in the same manner except that the arteries are not clamped, gross behavioral observations along with motor activity are recorded for 2 hours on the first (24 hours) day following the occlusion. After 4 days, subjects are sacrificed (decapitation), brains are removed, fixed, sectioned and stained with hematoxylin/eosin and cresyl violet.
The brain sections are rated for neuronal damage in the hippocampus using the following rating scale:
1=slight damage (up to 25%)--restricted to CA1 subiculum border
2=moderate damage (up to 50%)--obvious damage, restricted to less than half of CA1 field […]
Sections (7 micron) are evaluated from each brain. […] The average brain damage rating score for each group is recorded, and the damage scores of the drug treated group are compared to the vehicle-treated group using Wilcoxcon-Rank Sum test. […]

[4] = NMDA-induced excitatory response, compounds of the invention, read-out: ID50 (dose of the test drug which causes 50% inhibition)

| Structure (SMILES) | IC50 [2] | ED50 [1, 4] | other results |
| --- | --- | --- | --- |
| C/C(=C\C(N)C(=O)O)CP(=O)(O)O (stereo not shown) [CGP 37849, reference compound] |  |  | ED50 ([1]; read-out: ID50 of reference agents shown to be active in this test): 1.7 mg/kg |
| CC(C)OC(=O)c1n[nH]c2c(=O)[nH]c3cc(Cl)ccc3c(=O)c12 [Example 18, 7-Chloro-3-(isopropoxycarbonyl)pyrazolo[3,4-c][1]benzazepine-4,10(1H,9H)-dione] | 64 nM | 3.5 mg/kg | change in infarct volume (infarcted cortex): -19% |
| CCCCOC(=O)c1n[nH]c2c(=O)[nH]c3cc(Cl)ccc3c(=O)c12 [Example 27, 3-butoxycarbonyl-7-chloropyrazolo[3,4c][1]benzazepine-4,10(1H,9H)-dione] | 229 nM | 5.7 mg/kg |  |
| CCCOC(=O)c1n[nH]c2c(=O)[nH]c3cc(Cl)ccc3c(=O)c12 [Example 28, 3-propoxycarbonyl-7-chloropyrazolo[3,4-c][1]benzazepine-4,10(1H,9H)-dione] | 27 nM | 4.6 mg/kg |  |
| O=c1[nH]c2cc(Cl)ccc2c(=O)c2n[nH]nc12 [Example 48(d), 7-Chloro-1,2,3-triazolo[4,5-c][1]benzazepine-4,10(1H,9H)-dione] |  |  | neuroprotection [3]: 77% |
| NC1CCN(O)C1=O (stereo not shown) [HA-966, reference compound] |  |  | ED50 ([1]; reference agents, read-out: ID50 of reference agents shown to be active in this test): 7.9 mg/kg |

— US6124281A, “Azolobenzazepine derivatives as neurologically active agents” (Zeneca Limited, priority 1998, dated 2000)
